Experimental data taken from PubChem BioAssay (NCI).
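Cells were grown in 96-well plates and exposed to each compound for 48 hours at five concentrations; endpoints were interpolated linearly between bracketing concentrations, or set to the highest concentration if not reached. The concentration for 50% growth inhibition is given as GI50. TGI: concentration producing complete growth inhibition.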

Legend:
Assay in all cases: DTP human tumour cell line panel, 48 h
HT29 colon = system: HT29 colon
A498 renal = system: A498 renal
COLO 205 colon = system: COLO 205 colon
SNB-19 CNS = system: SNB-19 CNS
HCT-15 colon = system: HCT-15 colon
OVCAR-3 ovarian = system: OVCAR-3 ovarian
786-0 renal = system: 786-0 renal
K-562 leukemia = system: K-562 leukemia
SF-268 CNS = system: SF-268 CNS
PC-3 prostate = system: PC-3 prostate
NCI-H23 lung = system: NCI-H23 lung
SNB-75 CNS = system: SNB-75 CNS
DU-145 prostate = system: DU-145 prostate
HCC-2998 colon = system: HCC-2998 colon
NCI-H460 lung = system: NCI-H460 lung
OVCAR-5 ovarian = system: OVCAR-5 ovarian
SK-OV-3 ovarian = system: SK-OV-3 ovarian
SK-MEL-5 melanoma = system: SK-MEL-5 melanoma
HL-60(TB) leukemia = system: HL-60(TB) leukemia
MDA-MB-435 = system: MDA-MB-435
T-47D breast = system: T-47D breast
HS 578T breast = system: HS 578T breast
NCI-H522 lung = system: NCI-H522 lung
NCI/ADR-RES ovarian = system: NCI/ADR-RES ovarian
SF-295 CNS = system: SF-295 CNS
CAKI-1 renal = system: CAKI-1 renal
SN12C renal = system: SN12C renal
HCT-116 colon = system: HCT-116 colon
RXF 393 renal = system: RXF 393 renal
KM12 colon = system: KM12 colon
IGROV1 ovarian = system: IGROV1 ovarian
U251 CNS = system: U251 CNS
MDA-MB-231 breast = system: MDA-MB-231 breast
SR leukemia = system: SR leukemia
RPMI-8226 leukemia = system: RPMI-8226 leukemia
CCRF-CEM leukemia = system: CCRF-CEM leukemia
UO-31 renal = system: UO-31 renal
NCI-H226 lung = system: NCI-H226 lung
BT-549 breast = system: BT-549 breast
LOX IMVI melanoma = system: LOX IMVI melanoma
UACC-62 melanoma = system: UACC-62 melanoma
MOLT-4 leukemia = system: MOLT-4 leukemia
SW-620 colon = system: SW-620 colon
A549 NSCLC = system: A549 NSCLC
SK-MEL-28 melanoma = system: SK-MEL-28 melanoma
UACC-257 melanoma = system: UACC-257 melanoma
SK-MEL-2 melanoma = system: SK-MEL-2 melanoma
M14 melanoma = system: M14 melanoma
MALME-3M melanoma = system: MALME-3M melanoma
ACHN renal = system: ACHN renal
OVCAR-8 ovarian = system: OVCAR-8 ovarian
MCF7 breast = system: MCF7 breast
SF-539 CNS = system: SF-539 CNS
HOP-62 NSCLC = system: HOP-62 NSCLC
OVCAR-4 ovarian = system: OVCAR-4 ovarian

Molecule `COc1cc(/C=C/C(=O)c2ccc(Cl)cc2)ccc1OS(=O)(=O)c1ccc(C)cc1` has a GI50 (HT29 colon) of 2.15 µM, a TGI (HT29 colon) of 4.73 µM and a GI50 (A498 renal) of 28.8 µM. For the same molecule, the TGI (A498 renal) was over 100 µM, the GI50 (COLO 205 colon) was 12.3 µM and the TGI (COLO 205 colon) was 39.7 µM. It also gave a GI50 (SNB-19 CNS) of 9.53 µM, a TGI (SNB-19 CNS) of 23.2 µM and a GI50 (HCT-15 colon) of 1.74 µM. It also gave a TGI (HCT-15 colon) of 3.81 µM, a GI50 (OVCAR-3 ovarian) of 3.57 µM and a TGI (OVCAR-3 ovarian) of 12.6 µM. For the same molecule, the GI50 (786-0 renal) was 10.7 µM, the TGI (786-0 renal) was 24.6 µM and the GI50 (K-562 leukemia) was 2.87 µM. The TGI (K-562 leukemia) was 11.3 µM, the GI50 (SF-268 CNS) was 7.17 µM and the TGI (SF-268 CNS) was 34 µM. The GI50 (PC-3 prostate) was 3.6 µM, the TGI (PC-3 prostate) was 15.5 µM and the GI50 (NCI-H23 lung) was 13.3 µM. The TGI (NCI-H23 lung) was 43.6 µM, the GI50 (SNB-75 CNS) was 31.6 µM and the TGI (SNB-75 CNS) was over 100 µM. It also gave a GI50 (DU-145 prostate) of 16.4 µM, a TGI (DU-145 prostate) of 45.2 µM and a GI50 (HCC-2998 colon) of 12.4 µM. For the same molecule, the TGI (HCC-2998 colon) was 26.7 µM, the GI50 (NCI-H460 lung) was 17.3 µM and the TGI (NCI-H460 lung) was 72.4 µM. It also gave a GI50 (OVCAR-5 ovarian) of 16.7 µM, a TGI (OVCAR-5 ovarian) of 33.2 µM and a GI50 (SK-OV-3 ovarian) of 30.1 µM. It also gave a TGI (SK-OV-3 ovarian) of over 100 µM, a GI50 (SK-MEL-5 melanoma) of 12.4 µM and a TGI (SK-MEL-5 melanoma) of 25.1 µM. For the same molecule, the GI50 (HL-60(TB) leukemia) was 3.29 µM, the TGI (HL-60(TB) leukemia) was 14.8 µM and the GI50 (MDA-MB-435) was 2.74 µM. For the same molecule, the TGI (MDA-MB-435) was 8.56 µM, the GI50 (T-47D breast) was 9.27 µM and the TGI (T-47D breast) was 28.6 µM. The GI50 (HS 578T breast) was 3.99 µM, the TGI (HS 578T breast) was over 100 µM and the GI50 (NCI-H522 lung) was 2.93 µM. For the same molecule, the TGI (NCI-H522 lung) was 12.2 µM, the GI50 (NCI/ADR-RES ovarian) was 9.38 µM and the TGI (NCI/ADR-RES ovarian) was 37.7 µM. The GI50 (SF-295 CNS) was 9.27 µM, the TGI (SF-295 CNS) was 26.2 µM and the GI50 (CAKI-1 renal) was 11.1 µM. The TGI (CAKI-1 renal) was 44.4 µM, the GI50 (SN12C renal) was 10 µM and the TGI (SN12C renal) was 34.8 µM. The GI50 (HCT-116 colon) was 1.76 µM, the TGI (HCT-116 colon) was 3.71 µM and the GI50 (RXF 393 renal) was 13.2 µM. For the same molecule, the TGI (RXF 393 renal) was 29.5 µM, the GI50 (KM12 colon) was 3.63 µM and the TGI (KM12 colon) was 13.8 µM. The GI50 (IGROV1 ovarian) was 14.5 µM, the TGI (IGROV1 ovarian) was 41.7 µM and the GI50 (U251 CNS) was 2.18 µM. The TGI (U251 CNS) was 5.38 µM, the GI50 (MDA-MB-231 breast) was 9.02 µM and the TGI (MDA-MB-231 breast) was 28 µM. It also gave a GI50 (SR leukemia) of 1.9 µM, a TGI (SR leukemia) of 6.56 µM and a GI50 (RPMI-8226 leukemia) of 2.1 µM. It also gave a TGI (RPMI-8226 leukemia) of 4.77 µM, a GI50 (CCRF-CEM leukemia) of 2.46 µM and a TGI (CCRF-CEM leukemia) of 7.19 µM. It also gave a GI50 (UO-31 renal) of 6.95 µM, a TGI (UO-31 renal) of 21.1 µM and a GI50 (NCI-H226 lung) of 12.7 µM. The TGI (NCI-H226 lung) was 27.9 µM, the GI50 (BT-549 breast) was 5.64 µM and the TGI (BT-549 breast) was 18.7 µM. The GI50 (LOX IMVI melanoma) was 1.93 µM, the TGI (LOX IMVI melanoma) was 3.67 µM and the GI50 (UACC-62 melanoma) was 4.93 µM. For the same molecule, the TGI (UACC-62 melanoma) was 20.3 µM, the GI50 (MOLT-4 leukemia) was 2.76 µM and the TGI (MOLT-4 leukemia) was 7.74 µM. For the same molecule, the GI50 (SW-620 colon) was 2.21 µM, the TGI (SW-620 colon) was 6.01 µM and the GI50 (A549 NSCLC) was 18.4 µM. For the same molecule, the TGI (A549 NSCLC) was over 100 µM, the GI50 (SK-MEL-28 melanoma) was 18.3 µM and the TGI (SK-MEL-28 melanoma) was 47.5 µM. It also gave a GI50 (UACC-257 melanoma) of 14 µM, a TGI (UACC-257 melanoma) of 36.3 µM and a GI50 (SK-MEL-2 melanoma) of 12.3 µM. For the same molecule, the TGI (SK-MEL-2 melanoma) was 28.8 µM, the GI50 (M14 melanoma) was 6.35 µM and the TGI (M14 melanoma) was 23.6 µM. It also gave a GI50 (MALME-3M melanoma) of 13.1 µM, a TGI (MALME-3M melanoma) of 33.6 µM and a GI50 (ACHN renal) of 9.68 µM. It also gave a TGI (ACHN renal) of 22.2 µM, a GI50 (OVCAR-8 ovarian) of 3.23 µM and a TGI (OVCAR-8 ovarian) of 16 µM. For the same molecule, the GI50 (MCF7 breast) was 2.56 µM, the TGI (MCF7 breast) was 25.6 µM and the GI50 (SF-539 CNS) was 11.2 µM. For the same molecule, the TGI (SF-539 CNS) was 24 µM, the GI50 (HOP-62 NSCLC) was 30 µM and the TGI (HOP-62 NSCLC) was 92 µM. For the same molecule, the GI50 (OVCAR-4 ovarian) was 12.8 µM and the TGI (OVCAR-4 ovarian) was 80.1 µM.
